The assay concerns the target T1, Cloned Human Serotonin Receptor, Subtype 7 (h5HT7) (Homo sapiens, UniProt P34969).
T1 construct: purchased PerkinElmer 6120512; host or cells: CHO cells
Briefly: Radioligand binding assay, [125I]LSD, Flashplate. Conditions: h5HT7 expressed in CHO cells; radioligand [125I]LSD 0.82 nM; 240 min at room temperature; read-out: 5-HT7 Ki. The protocol:
Radioligand binding assays were performed using the Cloned Human Serotonin Receptor, Subtype 7 (h5HT7), expressed in CHO cells, coated on Flashplate (Basic FlashPlate Cat.: SMP200) from PerkinElmer (Cat.: 6120512). The protocol assay was essentially the recommended protocol in the Technical Data Sheet by PerkinEmer Life and Analytical Sciences. The Mass membrane protein/well was typically […] and the Receptor/well was about 9-10 fmoles. The Flashplate were let equilibrate at room temperature for one hour before the addition of the components of the assay mixture. The binding buffer was: 50 mM Tris-HCl, pH 7.4, containing 10 mM MgCl2, 0.5 mM EDTA and 0.5% BSA. The radioligand was [^125l]LSD at a final concentration of 0.82 nM. Nonspecific binding was determined with 50 µM of Clozapine. The assay volume was […]. […] The radioactivity were quantified by liquid scintillation spectrophotometry (Wallac 1450 Microbeta Trilux) with a count delay of 4 minutes prior to counting and a counting time of 30 seconds per well. Competition binding data were analyzed by using the LIGAND program (Munson and Rodbard, LIGAND: A versatile, computerized approach for characterization of ligandbinding systems. Anal. Biochem. 107: 220-239, 1980) and assays were performed in triplicate determinations for each point.

By Ki is commonly meant the dissociation constant of the complex between target and ligand, obtained from inhibition or displacement.

T1 sequence (P34969 whole entry): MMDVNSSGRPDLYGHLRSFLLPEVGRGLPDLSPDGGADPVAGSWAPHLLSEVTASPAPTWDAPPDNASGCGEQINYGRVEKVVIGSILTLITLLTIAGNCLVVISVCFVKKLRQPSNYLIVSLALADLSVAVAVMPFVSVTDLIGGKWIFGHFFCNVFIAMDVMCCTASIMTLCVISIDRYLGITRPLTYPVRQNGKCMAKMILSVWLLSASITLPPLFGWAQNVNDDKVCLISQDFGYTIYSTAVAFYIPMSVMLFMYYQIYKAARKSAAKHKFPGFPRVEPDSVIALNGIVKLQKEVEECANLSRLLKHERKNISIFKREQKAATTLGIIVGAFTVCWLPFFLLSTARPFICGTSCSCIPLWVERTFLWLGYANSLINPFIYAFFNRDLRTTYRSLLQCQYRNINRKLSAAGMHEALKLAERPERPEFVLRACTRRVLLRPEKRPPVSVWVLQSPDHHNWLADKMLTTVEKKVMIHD

`Cc1nn(C)c(-c2ccc3c(c2)C(N(C)C)CC3)c1C` (centres unmarked) [Example 3, N,N-dimethyl-6-(1,3,4-trimethyl-1H-pyrazol-5-yl)-2,3-dihydro-1H-inden-1-amine]: the Ki turned out to be 425 nM.
As to `Cc1nn(C(C)C)c(-c2ccc3c(c2)C(N(C)C)CC3)c1C` (centres unmarked) [Example 9, 6-(1-lsopropyl-3,4-dimethyl-1H-pyrazol-5-yl)-N,N-dimethyl-2,3-dihydro-1H-inden-1-amine], the Ki was determined as 360 nM.

Values taken from US20120264799A1, “INDANE-AMINE DERIVATIVES, THEIR PREPARATION AND USE AS MEDICAMENTS” (LABORATORIOS DEL DR. ESTEVE ,S.A., priority 2009, published 2012).
